Structures can show the parent of a compound that is named as a salt.
Assays:
SB.mhdgc-1 = assay: AC50 for growth inhibition (viability) (log10 M); higher = less potent; conditions: SB.mhdgc-1 (hereditary c.1380delA CDH1 gastric cancer)
Outline: (§1)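 Gastric cancer cells derived from patients with hereditary or sporadic disease were seeded at 500 cells in 5 μL medium per 1536 well. A pintool delivered 23 nL of compound in DMSO, as 11 threefold dilutions from a final 46 μM. After 48 h, CellTiter-Glo was added for 30 min at room temperature and luminescence was read on a ViewLux. The log half-maximal activity concentration was taken from a four-parameter fit of viability normalised to DMSO, using only high-quality curve classes.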

SB.msgc-1 = assay: as above; conditions: SB.msgc-1 (sporadic gastric cancer)
Outline: as §1

Structure (SMILES)	AC50 for growth inhibition (log10 M) (SB.mhdgc-1)	AC50 for growth inhibition (log10 M) (SB.msgc-1)
Cc1cc(-c2ncc(CC(=O)Nc3ccc(-c4cnccn4)cn3)cc2C)ccn1 [LGK974]	-4.88	-4.78
Cc1ccc(C(=O)Nc2cccc(C(F)(F)F)c2)cc1Nc1nc(-c2cccnc2)nc2c1cnn2C [NVP-BHG712]	-4.83	-4.78
Cc1c(N)nc([C@H](CC(N)=O)NC[C@@H](N)C(N)=O)nc1C(=O)N[C@H](C(=O)N[C@@H](C)[C@H](O)[C@@H](C)C(=O)N[C@@H](C(=O)NCCc1nc(-c2nc(C(=O)NCCC[S+](C)C)cs2)cs1)[C@@H](C)O)C(O[C@H]1O[C@H](CO)[C@H](O)[C@@H](O)[C@H]1O[C@H]1O[C@H](CO)[C@@H](O)[C@H](OC(N)=O)[C@@H]1O)c1c[nH]cn1 (some centres undefined) [Bleomycin sulfate]	-5.88	-5.43
C[C@]12CC[C@H]3[C@@H](CC[C@H]4NC(=O)\C=C/[C@]34C)[C@@H]1CC[C@@H]2C(=O)NC5=CC(=CC=C5C(F)(F)F)C(F)(F)F [Dutasteride]	-4.78	-4.93
N#Cc1c(C2CCNCC2)cc(-c2c(O)cccc2OCC2CC2)nc1N [IKK-2 Inhibitor VIII]	-4.88	-4.73
CC(=O)Oc1ccccc1C(=O)Nc1ncc([N+](=O)[O-])s1 [Nitazoxanide]	-4.72	-4.72
CC(=O)C\1=C(/C)C2=CN=C(NC3=CC=C(C=N3)N4CCNCC4)N=C2N(C5CCCC5)C1=O	-4.93	-4.73
C#Cc1cccc(Nc2ncnc3cc(OCCOC)c(OCCO)cc23)c1 [OSI-420]	-6.23	-6.03
CN[C@@H]1[C@H](O)[C@H](NC)[C@H]2O[C@@]3(O)C(=O)C[C@@H](C)O[C@H]3O[C@@H]2[C@H]1O [Spectinomycin hydrochloride]	-5.93	-6.08
COC[C@H]1OC(=O)C2=COC3=C2[C@@]1(C)\C4=C(\[C@@H]5CC[C@H](O)[C@@]5(C)C[C@H]4OC(C)=O)C3=O [17_-hydroxy Wortmannin]	-5.53	-5.58
CCCCCC[C@H]1C(=O)O[C@H](C)[C@H](NC(=O)c2cccc(NC=O)c2O)C(=O)O[C@@H](C)[C@@H]1OC(=O)CC(C)C [Antimycin A]	-7.08	-7.13
Cc1ccc(NC(=O)c2cccc(N(C)C)c2)cc1NC(=O)c1ccc(O)cc1	-6.48	-5.78
CN(C)CC[C@H](CSc1ccccc1)Nc1ccc([S+](=O)([O-])NC(=O)c2ccc(N3CCN(Cc4ccccc4-c4ccc(Cl)cc4)CC3)cc2)cc1[N+](=O)[O-] [ABT-737]	-5.43	-5.03
CCC[C@@H](C=O)NC(=O)[C@H](CC(C)C)NC(=O)[C@H](CC(C)C)NC(=O)OCc1ccccc1 [MG-115]	-5.98	-5.88
CC[C@@H]1[C@@H](C)O[C@@](O)([C@@H](C)[C@H](O)[C@H](C)[C@H]2OC(=O)/C=C/C=C/[C@H](C)[C@@H]([C@@H](C)[C@@H](O)[C@H](C)[C@@]3(O)C[C@@H](O[C@H]4C[C@H](O)[C@H](O)[C@H](C)O4)[C@H](CC)[C@@H](C)O3)OC(=O)/C=C/C=C/[C@@H]2C)C[C@H]1O[C@H]1C[C@H](O)[C@H](O)[C@H](C)O1 [Azalomycin-B]	-6.38	-6.33
F\C1=C\NC(=O)NC1=O [Fluorouracil]	-6.43	-5.28
CC[C@H]1CN2CCc3cc(OC)c(OC)cc3[C@@H]2C[C@@H]1C[C@H]1NCCc2cc(OC)c(OC)cc21 [Emetine]	-5.68	-6.83
CC/1=C(\O)C(=O)\C=C2/C1=C/C=C3\[C@@]2(C)CC[C@@]4(C)[C@@H]5C[C@@](C)(CC[C@]5(C)CC[C@]34C)C(O)=O [Tripterin]	-5.58	-5.78
Cc1[nH]c(/C=C2\C(=O)Nc3ccccc32)c(C)c1CCC(=O)O [Orantinib]	-6.48	-5.13
CN(C1CCc2c(c3ccccc3n2CC(=O)O)C1)[S+](=O)([O-])c1ccc(F)cc1 (centres undefined)	-5.03	-4.73
CN1CCC(CNc2ccc3ncc(-c4cccc(OC(F)(F)F)c4)n3n2)CC1 [SGI-1776]	-5.03	-4.83
CC(=O)Nc1ccc([C@H](C)C(=O)Nc2ncc(C(C)C)s2)cc1	-7.13	-5.88
CC(C)n1nc(-c2cc3cc(O)ccc3[nH]2)c2c(N)ncnc21 [PP-242]	-6.93	-5.28
Cc1c[nH]c(/C=C2\C(=O)Nc3ccccc32)c1CCC(=O)O [SU-5402]	-4.68	-4.73

Structure (SMILES)	AC50 for growth inhibition (log10 M) (SB.mhdgc-1)	AC50 for growth inhibition (log10 M) (SB.msgc-1)
CC(C)Cn1cnc2c(N)nc3ccccc3c21 [Imiquimod]	-5.93	-4.73
COc1cc(NC(=O)c2ccc(-c3ccc(Cl)cc3)o2)cc(OC)c1	-5.73	-5.58
CC(C)C[C@H](NC(=O)c1cc2ccccc2s1)C(=O)N1CCN(C(=O)[C@H](CO)N[S+](=O)([O-])c2ccc(Cl)cc2Cl)CC1	-4.73	-4.73
CC(=O)O[C@@]1(CC[C@H]2[C@@H]3\C=C(Cl)/C4=C/C(=O)[C@@H]5C[C@@H]5[C@]4(C)[C@H]3CC[C@]12C)C(C)=O [Cyproterone acetate]	-5.08	-4.68
CCOc1cc(C(=O)Nc2ccc(Cl)c(-c3nc4ccccc4[nH]3)c2)cc(OCC)c1OCC [SANT-2]	-5.93	-5.18
CC1=C(/C=C/C(C)=C/C=C/C(C)=C/C=C/C=C(C)/C=C/C=C(C)/C=C/C2=C(C)CCCC2(C)C)C(C)(C)CCC1 [beta-Carotene]	-5.13	-4.88
N#C[C@H](O[C@@H]1O[C@H](CO[C@@H]2O[C@H](CO)[C@@H](O)[C@H](O)[C@H]2O)[C@@H](O)[C@H](O)[C@H]1O)c1ccccc1 [Amygdalin]	-4.73	-4.68
Nc1ncnc2c1ncn2[C@@H]1O[C@H](CO)[C@@H](O)[C@H]1O [Adenosine]	-6.08	-5.58
CC1(C)C(N(O)C(=O)Nc2ccc(Cl)cc2)N(c2ccc(Cl)cc2)C(=O)N1CC(=O)N/N=C/C=C/c1ccc([N+](=O)[O-])o1 (centres undefined) [Eeyarestatin I]	-5.08	-5.03
CCCCc1nc2cc(/C=C/C(=O)NO)ccc2n1CCN(CC)CC [Pracinostat]	-5.33	-6.88
CO[C@H]1CCC(O[C@H]2C[C@H]([C@]3(C)CC[C@]4(C[C@H](O)[C@@H](C)[C@@H]([C@@H](C)/C=C(\C)C(=O)[C@H](C)C[C@H](C)C(=O)[O][Na])O4)O3)O[C@]3(O[C@@H]([C@H]4O[C@@](O)(CO)[C@H](C)C[C@@H]4C)C[C@@H]3C)[C@@H]2C)O[C@@H]1C (some centres undefined) [Nanchangmycin]	-6.83	-6.68
COc1ccc(C[C@@H](C)[C@@H](C)Cc2ccc(OC)c(OC)c2)cc1OC [Terameprocol]	-5.18	-5.43
O=C(CCc1ccc(O)cc1)c1c(O)cc(O)cc1O [Phloretin]	-7.33	-7.13
NC/1=N/C2=C([NH]C=N2)C(=S)N1 [Tioguanine]	-5.03	-5.58
Cc1cccc(-c2[nH]c(C(C)(C)C)nc2-c2ccc3c(c2)OCO3)n1	-4.83	-4.88
O=[N+]([O-])c1cnc(Sc2nnc(O)n2-c2ccc3c(c2)OCCO3)s1 [BI-78D3]	-5.43	-4.83
CCCNC(=O)[C@H]1O[C@@H]1C(=O)N[C@H](C(=O)N1CCC[C@H]1C(=O)OC)C(C)CC (some centres undefined) [CA-074 Me]	-4.78	-4.73
C[C@]\1(CCS\C(=N1)N)C2=CC(=C(F)C=C2F)C3=CN=CN=C3	-4.73	-4.63
C#C[C@]1(O)CC[C@H]2[C@@H]3CCc4cc(O)ccc4[C@H]3CC[C@@]21C [Ethinylestradiol]	-4.78	-4.83
COc1ccc(-c2ccc3c(N4CCOC[C@@H]4C)nc(N4CCOC[C@@H]4C)nc3n2)cc1CO [AZD-8055]	-7.83	-5.98
CCC1=C2CN3C(=O)\C4=C(/C=C3/C2=NC5=CC=C(O)C=C15)[C@@](O)(CC)C(=O)OC4 [SN-38]	-8.48	-8.08
COc1ccc(-c2ccc3ncc4c(c3c2)n(-c2ccc(N3CCNCC3)c(C(F)(F)F)c2)c(=O)n4C)cn1 [NVP-BGT226]	-6.58	-5.58
COc1ccc(F)c(F)c1C(=O)c1cnc(NC2CCN([S+](C)(=O)[O-])CC2)nc1N [R-547]	-5.73	-6.03

Source: the supplement of paper PMC5412046
